Data on two substances can be found in patent US20050238593A1, “Compositions containing dolichol for dermatological and cosmetic use” (priority 2002, published 2005).

Data set [1] concerns isolated hepatocytes treated with carbon tetrachloride. Kind of data set: Peroxidative degradation of dolichol and TBARS formation in hepatocytes treated with CCl4. To be noted: Vitamin E administered. Type of data set: cell-based. An excerpt: (§1) After irradiation, dolichol undergoes transformations in the most dangerous spectral region (UVB), depending on the dose of radiation applied; it absorbs UV radiation and, if irradiated with UVC rays, instantly acquires an absorption capacity in the UVB region. […] The phenomenon is very weak in the case of irradiation with monochromatic light at 310 nm, more intense with irradiation at 280 nm, and greatest with white light irradiation, namely with the entire emission spectrum of the xenon lamp. […] The photodecomposition products of dolichol have not yet been identified but, by analogy with the findings made with peroxidative degradation of dolichol in isolated hepatocytes treated with carbon tetrachloride, it can be concluded that in biological systems, the degradation cascade leads to the formation of thiobarbituric acid reactive substances (TBARS), which are readily metabolised and detoxified by the body in the event of resorption. […] As regards absorption, it should be borne in mind that dolichol is a normal constituent of all cell membranes, in which it is synthesised and remains until breakdown, without being resorbed into the bloodstream or being transferable to other tissues.

Data set [2] is described as follows: Study of anti UV-B activity: UV photo-irradiation of dolichol, absorbance change. The class given is physicochemical.
Description: as §1

Data set [3] is described as follows: In vivo photoprotection tests using dolichol. The conditions noted are these: dolichol approx. 1 mg/cm2, in vivo.

For Vitamin E, the “degradation of dolichol and formation of TBARS” value in data set [1] is given as “prevented”.

Take dolichol: in data set [2] (UV photo-irradiation in an oxygen atmosphere), the “photostability under UV photo-irradiation” value was “apparent breakdown, accompanied by disappearance of UVC absorption capacity”. Further, the “increase in absorbance at 250 nm” value in data set [2] (irradiated with UVC rays) is given as “more modest increases”. The “increase in absorbance at 320 nm” value in data set [2] (irradiated with UVC rays, in one minute) was 430%; in data set [2] (irradiated with UVC rays, in two minutes), 580%. Besides, the “acquisition of UVB absorption (the phenomenon)” value in data set [2] (irradiation at 280 nm) is “more intense”; in data set [2] (irradiation with monochromatic light at 310 nm), “very weak”; in data set [2] (white light irradiation, entire emission spectrum of the xenon lamp) it was “greatest”. Further, the “(photo)sensitising effects” value in data set [3] is “does not have cell-damaging effects or (photo)sensitising effects”. The cell-damaging effects entry in data set [3] is “does not have cell-damaging effects”.
